From patent US20040138826A1, “Experimental design and data analytical methods for detecting and characterizing interactions and interaction thresholds on fixed ratio rays of polychemical mixtures and subsets thereof” (priority 2002, published 2004)
Values joined by “and” are separate entries in the source; they are usually repeats but may differ in a detail not shown here. Equal values may be shown once. “Also recorded” adds a separate entry of the source. Read-outs that look alike come from different tables or passages of the source.

Experiments:
[1] = tested on: healthy adult rats; conditions: for Threshold Estimate: dose threshold for motor activity, threshold additivity model, SAR analysis; for Threshold Estimate / Mean Motor Activity Response: rats; for Mean Motor Activity Response: single chemical
Excerpt: To motivate the use of these fixed-ratio mixture ray designs consider a study which examines exposure to environmentally relevant pesticides. The OP pesticides chosen for study, based on usage patterns (i.e. pesticides used on same or similar crops) and market share (i.e. highest volume pesticides), were acephate, diazinon, chlorpyrifos, dimethoate, and malathion. Motor activity, a count of the number of passes made across a central area, was used to assess toxicity in healthy adult rats. A full five-pesticide fixed-ratio ray, given by (0.040:0.002:0.031:0.102:0.825) for (acephate:diazinon:chlorpyrifos:dimethoate:malathion), was chosen based on relative dietary exposure estimates of each chemical as projected by the U.S. EPA Dietary Exposure Evaluation Model (DEEM).
Single chemical data were collected approximately 18 months prior to the data along the full fixed-ration ray.
Fixed-ratio ray designs were chosen to study interactions among combinations of multiple pesticides. The pesticides chosen for these studies, based on usage patterns (i.e., pesticides used on the same or similar crops) and market share (i.e., highest volume pesticides), were acephate, diazinon, chlorpyrifos, dimethoate, and malathion. Motor activity, a count of the number of passes made across a central area, was chosen to assess the toxicity of these pesticides in healthy adult rats. The fixed-ratio ray under study was chosen based on the relative dietary exposure estimates of each chemical as projected by the U.S. EPA Dietary Exposure Evaluation Model (DEEM) and is given by (0.040:0.002:0.031:0.102:0.825) for acephate, diazinon, chlorpyrifos, dimethoate, and malathion respectively.
The five-pesticide study described in the introduction is used to illustrate the sample size and power methods developed in Section 3. Due to the high potential of aggregate exposure to OP pesticides, researchers were initially interested in testing the hypothesis of additivity, given in (5), along the full five-pesticide fixed-ratio ray, given by (0.040:0.002:0.031:0.102:0.825) for ([…]), that represents relative dietary exposure estimates. Single chemical data were collected and used to estimate an additivity model along the ray (analysis not shown). Since, the motor activity response is a count variable it was assumed that V(m)=m and the log link function (McCullagh and Nelder, 1989) was used to fit the generalized linear additivity model described in Section 2. […] Eighty-six animals were considered. Fourteen animals were evaluated in the control group. Twelve animals each were evaluated at 10, 55, 100, 200, 300, and 450 mg/kg. Summary statistics for the single chemical and mixture data are provided in the appendix.
The five-pesticide study described in the introduction is used to illustrate the design methodology developed in the following sections. Due to the high potential for aggregate exposure to OP pesticides, researchers were initially interested in testing the hypothesis of additivity, given in (4), along the full five-pesticide fixed-ratio ray, given by (0.040:0.002:0.031:0.102:0.825) for (acephate:diazinon:chlorpyrifos:dimethoate:malathion). Since motor activity response is a count variable, it was assumed that V(μ)=μ and the log link function (McCullagh and Nelder, 1989) was used to fit the generalized linear additivity model given in (1). […] Eighty-six animals were considered. Fourteen animals were evaluated in the control group. Twelve animals each were evaluated at 10, 55, 100, 200, 300, and 450 mg/kg.

[2] = tested on: rats; conditions: for effect when given alone on gait abnormality: single chemical data, rats
Excerpt: The endpoint of interest is neurotoxicity in rats as measured by a gait score dichotomized to indicate presence or absence of a gait abnormality (i.e., incoordination, loss of balance, etc.). The fixed-ratio ray under study was chosen based on the relative dietary exposure estimates of each chemical as projected by the U.S. EPA Dietary Exposure Evaluation Model (DEEM) and is given by (0.040:0.002:0.031:0.825:0.102) for ACE, DIA, CPF, MAL, DIM, respectively. […] (Note: Such a strategy can be extended for identifying the impact of the unidentified fraction in a complex mixture.)
The biological endpoint of interest is an indicator of neurotoxicity based on evidence of the presence or absence of a gait abnormality (Moser, 1995). In order to appropriately constrain the probability of a response to be between 0 and 1, a logit link function was used, i.e., g(μ)=log(μ/(1−μ)). It was assumed throughout that the variance changes as a binomial random variable such that Var(Y)=τμ(1−μ) (e.g., McCullagh and Nelder, 1989).
The resulting mixture experiment consisted of a vehicle control (n=14), ‘positive controls’ for ACE alone (6 and 30 mg/kg; n=6, 14, respectively), CPF alone (10, 20, 30 mg/kg; n=6, 8, 6, respectively), DIAZ alone (50 and 125 mg/kg; n=6, 14, respectively), MAL alone (350 mg/kg; n=14), DIM alone (10, 25, 50 mg/kg; n=6, 8, 6, respectively), and six total dose mixture concentrations (10, 55, 100, 200, 300 and 450 mg/kg; n=12 rats per dose group for a total of 72 rats exposed to a mixture of the chemicals) at a fixed mixing ratio ray of (0.040:0.002:0.031:0.825:0.102) for (ACE:DIA:CPF:MAL:DIM). Similarly, the design for a second fixed-ratio ray was based on a reduced number of the pesticides (omitting MAL) with the remaining pesticides at the same relative proportions as in the ‘full’ mixture study. The experiment consisted of a vehicle control (n=8), positive controls (n=8 per group) for ACE (30 mg/kg), CPF (20 mg/kg), DIA (125 mg/kg), and DIM (25 mg/kg), and six total dose mixture concentrations (1.75, 9.6, 17.5, 35, 52.5, and 78.8 mg/kg; n=12 rats per dose group) at a fixed mixing ratio ray of (0.229:0.011:0.177:0.583) for (ACE:DIA:CPF:DIM). Casey et al (2003a,b) describe the motor activity data in the mixture of these five pesticides.

Structure (SMILES)	Threshold Estimate [1]	Mean Motor Activity Response ([1]; dose 1 mg/kg)	Mean Motor Activity Response ([1]; dose 2 mg/kg)	Mean Motor Activity Response ([1]; dose 5 mg/kg)	Mean Motor Activity Response ([1]; dose 10 mg/kg)	Mean Motor Activity Response ([1]; dose 20 mg/kg)	Mean Motor Activity Response ([1]; dose 25 mg/kg)	Mean Motor Activity Response ([1]; dose 30 mg/kg)	Mean Motor Activity Response ([1]; dose 50 mg/kg)	effect when given alone on gait abnormality [2]	Mean Motor Activity Response ([1]; dose 75 mg/kg)	Mean Motor Activity Response ([1]; dose 125 mg/kg)	Mean Motor Activity Response ([1]; dose 150 mg/kg)	Mean Motor Activity Response ([1]; dose 250 mg/kg)	effect of malathion on the mixture, motor activity ([1]; SAR method, full vs reduced ray, p-value 0.068)	Mean Motor Activity Response ([1]; dose 100 mg/kg)	Mean Motor Activity Response ([1]; dose 500 mg/kg)	effect of MAL on the mixture, gait abnormality ([2]; adjusted comparison of full and reduced rays, listed as MAL)	effect when given alone on gait abnormality ([2]; listed as MAL)
CCOP(=S)(OCC)Oc1nc(Cl)c(Cl)cc1Cl [Chlorpyrifos, chlorpyrifos]	4.69 mg/kg	213.13	192.75	213.37	178.31 and 172.13	157.13	162.00	80.13	49.44 and 56.38	significant effect on a gait abnormality									
CCOP(=S)(OCC)Oc1cc(C)nc(C(C)C)n1 [Diazinon, diazinon]	25.0 mg/kg			190.88			215.56		183.13	significant effect on a gait abnormality	165.69	152.00	76.5	61.25					
CNC(=O)CSP(=S)(OC)OC [Dimethoate, dimethoate]	8.72 mg/kg			188.25	188.63		107.75		103.75	significant effect on a gait abnormality	101.50								
CCOC(=O)CC(SP(=S)(OC)OC)C(=O)OCC (stereo not shown) [Malathion, malathion]															marginal evidence that malathion has an effect on the mixture	201.5	203.75	significantly (p=0.016) changes the shape of the dose response curve in the full ray; also recorded: interacts with at least some or all of the other four pesticides; also recorded: interacts with the other pesticides	not dose responsive
